The values below come from ChEMBL document CHEMBL3758083, “Design and discovery of 4-anilinoquinazoline-acylamino derivatives as EGFR and VEGFR-2 dual TK inhibitors” (Eur J Med Chem, 2016).

Assay [1] deals with MCF7. Kind of assay: Antiproliferative activity against human MCF7 cells after 48 hrs by MTT assay. The format is functional, cell-based. To be noted: MCF7, 48 h. (Formazan colour is commonly taken as a measure of viable cells.)
In assay [2] the test system is HT-29. Kind of assay: Antiproliferative activity against human HT-29 cells after 48 hrs by MTT assay. In kind it is functional, cell-based. To be noted: HT-29, 48 h.
For assay [3], the target named is Vascular endothelial growth factor receptor 2 (Homo sapiens, UniProt P35968). Put plainly: Inhibition of human VEGFR-2 preincubated for 10 mins followed by addition of FAM-labeled peptide and incubated for 10 mins by Caliper motility shift assay.
Chain of Vascular endothelial growth factor receptor 2 (P35968 whole entry): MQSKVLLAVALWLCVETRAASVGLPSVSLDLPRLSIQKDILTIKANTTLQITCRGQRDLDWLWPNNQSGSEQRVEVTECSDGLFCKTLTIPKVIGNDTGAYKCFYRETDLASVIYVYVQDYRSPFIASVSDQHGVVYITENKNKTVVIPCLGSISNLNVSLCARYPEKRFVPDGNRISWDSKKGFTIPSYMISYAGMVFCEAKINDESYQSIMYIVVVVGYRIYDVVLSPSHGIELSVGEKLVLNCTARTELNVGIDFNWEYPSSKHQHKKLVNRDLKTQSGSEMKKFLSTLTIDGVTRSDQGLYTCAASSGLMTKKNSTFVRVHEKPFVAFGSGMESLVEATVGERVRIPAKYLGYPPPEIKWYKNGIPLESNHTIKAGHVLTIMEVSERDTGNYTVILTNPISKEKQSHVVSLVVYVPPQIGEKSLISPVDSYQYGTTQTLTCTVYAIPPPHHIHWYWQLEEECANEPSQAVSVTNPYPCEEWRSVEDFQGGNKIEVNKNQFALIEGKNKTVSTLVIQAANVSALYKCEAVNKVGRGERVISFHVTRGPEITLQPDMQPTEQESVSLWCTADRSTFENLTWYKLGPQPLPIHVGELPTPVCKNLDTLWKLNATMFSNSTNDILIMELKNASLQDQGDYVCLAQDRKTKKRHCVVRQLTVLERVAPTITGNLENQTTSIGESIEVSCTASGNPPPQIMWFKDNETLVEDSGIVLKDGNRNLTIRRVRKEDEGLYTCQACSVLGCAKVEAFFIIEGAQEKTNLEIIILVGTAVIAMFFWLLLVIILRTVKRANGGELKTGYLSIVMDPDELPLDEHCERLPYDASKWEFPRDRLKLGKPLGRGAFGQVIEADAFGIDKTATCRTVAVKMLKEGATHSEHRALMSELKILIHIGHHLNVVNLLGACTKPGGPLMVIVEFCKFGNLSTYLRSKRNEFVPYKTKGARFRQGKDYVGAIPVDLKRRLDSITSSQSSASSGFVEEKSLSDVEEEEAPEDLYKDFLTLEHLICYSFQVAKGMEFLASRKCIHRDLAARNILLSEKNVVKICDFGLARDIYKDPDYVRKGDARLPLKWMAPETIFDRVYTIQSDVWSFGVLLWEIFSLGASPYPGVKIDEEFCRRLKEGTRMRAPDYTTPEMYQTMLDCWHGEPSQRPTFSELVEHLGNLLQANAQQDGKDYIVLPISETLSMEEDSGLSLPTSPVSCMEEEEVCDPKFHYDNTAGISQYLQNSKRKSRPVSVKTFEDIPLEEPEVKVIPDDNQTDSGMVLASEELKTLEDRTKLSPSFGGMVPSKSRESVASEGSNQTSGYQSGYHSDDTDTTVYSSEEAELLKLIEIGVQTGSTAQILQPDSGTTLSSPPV
Assay [4] deals with NCI-H460. Kind of assay: Antiproliferative activity against human NCI-H460 cells after 48 hrs by MTT assay. In kind it is functional, cell-based. The conditions noted are these: NCI-H460, 48 h.
Assay [5] concerns the target Epidermal growth factor receptor (Homo sapiens, UniProt P00533). Kind of assay: Inhibition of human EGFR preincubated for 10 mins followed by addition of FAM-labeled peptide and incubated for 10 mins by Caliper motility shift assay.

Some results are limits rather than exact numbers.

Chain of Epidermal growth factor receptor (P00533 whole entry): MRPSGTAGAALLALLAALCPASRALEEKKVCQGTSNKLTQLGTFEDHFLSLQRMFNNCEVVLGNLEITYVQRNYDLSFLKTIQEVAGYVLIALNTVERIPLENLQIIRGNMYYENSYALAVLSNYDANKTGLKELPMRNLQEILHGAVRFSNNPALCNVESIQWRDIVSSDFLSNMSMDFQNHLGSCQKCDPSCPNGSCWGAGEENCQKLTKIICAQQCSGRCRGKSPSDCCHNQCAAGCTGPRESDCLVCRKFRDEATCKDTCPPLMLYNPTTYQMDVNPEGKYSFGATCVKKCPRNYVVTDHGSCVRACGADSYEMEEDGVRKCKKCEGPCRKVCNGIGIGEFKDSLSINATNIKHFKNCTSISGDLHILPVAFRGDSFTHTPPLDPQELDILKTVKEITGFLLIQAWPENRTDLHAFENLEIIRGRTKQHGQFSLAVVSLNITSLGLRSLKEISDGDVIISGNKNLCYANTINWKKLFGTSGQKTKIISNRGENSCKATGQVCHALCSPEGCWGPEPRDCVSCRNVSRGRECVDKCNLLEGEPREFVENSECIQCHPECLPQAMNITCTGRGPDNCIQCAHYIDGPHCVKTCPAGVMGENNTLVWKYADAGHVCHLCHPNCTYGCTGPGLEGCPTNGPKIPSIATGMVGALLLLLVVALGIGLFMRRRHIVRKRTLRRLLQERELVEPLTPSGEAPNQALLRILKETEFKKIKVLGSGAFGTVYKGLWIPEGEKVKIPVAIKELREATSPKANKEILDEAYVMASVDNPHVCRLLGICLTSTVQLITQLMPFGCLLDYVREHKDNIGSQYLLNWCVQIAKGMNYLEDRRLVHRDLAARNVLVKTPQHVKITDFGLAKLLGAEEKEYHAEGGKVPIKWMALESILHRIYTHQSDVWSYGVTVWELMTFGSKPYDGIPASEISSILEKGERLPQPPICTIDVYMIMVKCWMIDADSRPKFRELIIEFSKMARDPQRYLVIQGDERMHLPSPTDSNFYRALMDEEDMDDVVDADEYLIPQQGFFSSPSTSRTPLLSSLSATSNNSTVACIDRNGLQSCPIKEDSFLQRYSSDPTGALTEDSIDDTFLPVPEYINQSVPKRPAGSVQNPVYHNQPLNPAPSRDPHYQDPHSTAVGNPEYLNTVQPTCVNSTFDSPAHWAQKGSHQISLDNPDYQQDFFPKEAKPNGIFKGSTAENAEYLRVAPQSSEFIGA

As to `COc1cc2c(Nc3ccc(NC(=O)c4ccc(Cl)cc4)cc3)ncnc2cc1OCc1ccccc1`, the IC50 (commonly the point on the concentration scale where inhibition reaches its midpoint) in assay [1] is 56.4 µM; in assay [2], above 100 µM; in assay [3] it was above 10 µM; in assay [4] it was 21.1 µM; in assay [5], above 10 µM.
Regarding `COc1cc2c(Nc3ccc(NC(=O)c4ccc(C)cc4)cc3)ncnc2cc1OCCN1CCCCC1`, the IC50 in assay [2] is 6.85 µM; in assay [3], 2.48 µM; in assay [5] it was above 10 µM.
As to `COc1cc2c(Nc3ccc(NC(=O)c4ccc(C)cc4)cc3)ncnc2cc1OCCCN1CCN(C)CC1`, the IC50 in assay [1] amounted to 24.9 µM; in assay [2] it was 17.1 µM; in assay [3], 0.87 µM; in assay [4], 11.9 µM; in assay [5], 0.69 µM.
Consider `COc1cc2c(Nc3ccc(NC(=O)c4cccc(Cl)c4)cc3)ncnc2cc1OCCCN1CCN(C)CC1`, for which the IC50 in assay [1] worked out at 4.41 µM; in assay [2] it was 5.27 µM; in assay [3] it was 1.81 µM; in assay [4] it was 12 µM; in assay [5], 0.15 µM.
On the same counts, the results for `COc1cc2c(Nc3ccc(NC(=O)c4ccc(Cl)cc4)cc3)ncnc2cc1OCCN1CCCCC1` are 0.1 µM, 5.12 µM, 4.19 µM, 16 µM and above 10 µM.
In the case of `COc1cc2c(Nc3ccc(NC(=O)c4ccc(C)cc4)cc3)ncnc2cc1OCCCN1CCOCC1`, the IC50 in assay [1] worked out at 37.6 µM; in assay [2], 89.1 µM; in assay [3] it was 2 µM; in assay [5] it was 0.76 µM.
Take `COc1cc2c(Nc3ccc(NC(=O)c4ccc(C)cc4)cc3)ncnc2cc1OCc1ccccc1`: the IC50 is above 100 µM in assay [1]; above 100 µM in assay [2]; above 10 µM in assay [3]; 46.1 µM in assay [4]; above 10 µM in assay [5].
Regarding `COc1cc2c(Nc3ccc(NC(=O)c4cccc(Cl)c4)cc3)ncnc2cc1OCCCN1CCOCC1`, the IC50 in assay [1] is 7.8 µM; in assay [2], 21.3 µM; in assay [3] it was 2.99 µM; in assay [5], 0.23 µM.
Take `COc1cc2c(Nc3ccc(NC(=O)c4ccccc4)cc3)ncnc2cc1OCCCN1CCN(C)CC1`: the IC50 was 39 µM in assay [1], 31.3 µM in assay [2], 0.56 µM in assay [3] and 27.2 µM in assay [4].
For the compound `COc1cc2c(Nc3ccc(NC(=O)c4ccccc4)cc3)ncnc2cc1OCCN1CCCCC1`, the IC50 was 36 µM in assay [1]; 26.1 µM in assay [2]; 4.72 µM in assay [3]; 30 µM in assay [4]; 4.61 µM in assay [5].
On the same counts, the results for `COc1cc2c(Nc3ccc(NC(=O)c4ccccc4Cl)cc3)ncnc2cc1OCCCN1CCN(C)CC1` are 15.4 µM, 23.2 µM, 1.71 µM, 36.2 µM and 0.02 µM.
In the same order, the values of `COc1cc2c(Nc3ccc(NC(=O)c4ccccc4Cl)cc3)ncnc2cc1OCc1ccccc1` are 78.2 µM, above 100 µM, above 10 µM, 28.2 µM and 0.73 µM.
With `COc1cc2c(Nc3ccc(NC(=O)c4cccc(Cl)c4)cc3)ncnc2cc1OCc1ccccc1`, the half-inhibitory concentration (IC50) in assay [1] was above 100 µM; in assay [3], above 10 µM; in assay [4], 12.5 µM; in assay [5] it was above 10 µM.
With `COc1cc2c(Nc3ccc(NC(=O)c4ccccc4)cc3)ncnc2cc1OCc1ccccc1`, the IC50 is above 100 µM in assay [1]; 7.37 µM in assay [2]; above 10 µM in assay [3]; 62.4 µM in assay [4]; above 10 µM in assay [5].
With `COc1cc2c(Nc3ccc(NC(=O)c4ccc(Cl)cc4)cc3)ncnc2cc1OCCCN1CCOCC1`, the IC50 in assay [1] amounted to 40.2 µM; in assay [2], 9.39 µM; in assay [3] it was 2.62 µM; in assay [4], 8 µM; in assay [5], 1.35 µM.
For `COc1ccc(C(=O)Nc2ccc(Nc3ncnc4cc(OCCCN5CCN(C)CC5)c(OC)cc34)cc2)cc1`, the concentration for half-maximal inhibition (IC50) in assay [1] came out at 24.6 µM; in assay [2], 22.1 µM; in assay [3], 2.02 µM; in assay [4], 9.49 µM; in assay [5] it was 1.11 µM.
With `COc1cc2c(Nc3ccc(NC(=O)c4cccc(Cl)c4)cc3)ncnc2cc1OCCN1CCCCC1`, the IC50 in assay [1] worked out at 4.34 µM; in assay [2], 7.94 µM; in assay [3], 1.99 µM; in assay [5], 0.3 µM.
Take `COc1ccc(C(=O)Nc2ccc(Nc3ncnc4cc(OCc5ccccc5)c(OC)cc34)cc2)cc1`: the IC50 in assay [2] is above 100 µM; in assay [3] it was above 10 µM; in assay [4] it was 16.1 µM; in assay [5] it was above 10 µM.
`COc1cc2c(Nc3ccc(NC(=O)c4ccc(Cl)cc4)cc3)ncnc2cc1OCCCN1CCN(C)CC1`: the half-maximal inhibitory concentration (IC50) in assay [1] stood at 53.2 µM; in assay [2], 5.54 µM; in assay [3] it was 1.86 µM; in assay [4], 26 µM; in assay [5], 1.33 µM.
